Data published in ChEMBL document CHEMBL3272310, “Effect of chain length on critical micelle formation and protein binding of quaternary ammonium compounds” (J Med Chem, 1976).

Assays:
[1] = Critical micelle concentration of the compound; type: ADME
Albumin = Albumin (Bos taurus, UniProt P02769); assay: Binding affinity to bovine serum albumin; details: cattle, isolated protein
[2] = 1-Octanol-water partition coefficient, log P of the compound; type: physicochemical

Chain of Albumin (P02769 whole entry): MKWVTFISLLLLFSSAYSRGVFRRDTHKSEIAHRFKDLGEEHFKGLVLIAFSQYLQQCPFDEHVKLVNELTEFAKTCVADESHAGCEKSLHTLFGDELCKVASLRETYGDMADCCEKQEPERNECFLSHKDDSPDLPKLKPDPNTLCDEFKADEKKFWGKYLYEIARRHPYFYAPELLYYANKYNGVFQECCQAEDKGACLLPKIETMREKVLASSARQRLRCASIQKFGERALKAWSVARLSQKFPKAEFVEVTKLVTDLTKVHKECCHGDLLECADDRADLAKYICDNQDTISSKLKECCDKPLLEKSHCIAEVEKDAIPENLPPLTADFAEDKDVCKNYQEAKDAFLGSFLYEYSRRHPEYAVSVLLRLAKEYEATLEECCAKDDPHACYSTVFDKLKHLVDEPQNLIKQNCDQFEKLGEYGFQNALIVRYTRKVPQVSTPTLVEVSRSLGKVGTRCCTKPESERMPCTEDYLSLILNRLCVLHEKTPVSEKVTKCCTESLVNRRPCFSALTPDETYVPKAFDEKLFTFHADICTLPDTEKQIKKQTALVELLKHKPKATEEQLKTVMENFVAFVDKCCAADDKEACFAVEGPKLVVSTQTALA

SMILES	log1/CMC [1]	log K (Albumin)	logP [2]
CCCCCCCC[N+](C)(C)Cc1ccccc1.[Cl-]	0.67	4.82	–
CC[N+](C)(C)Cc1ccccc1	–	–	-3.38
CCCC[N+](C)(C)Cc1ccccc1	–	–	-1.85
CCCCCC[N+](C)(C)Cc1ccccc1	–	–	-1.53
CCCCCCCC[N+](C)(C)Cc1ccccc1	–	–	-0.29
CCCCCCCCCCCC[N+](C)(C)Cc1ccccc1.[Cl-] [BENZODODECINIUM CHLORIDE]	2.16	4.26	–

Now from value to compound:

log1/CMC [1]	log K (Albumin)	logP [2]	SMILES
4.48	–	–	CCCCCCCCCCCCCCCCCC[N+](C)(C)Cc1ccccc1.[Cl-]
1.47	5	–	CCCCCCCCCC[N+](C)(C)Cc1ccccc1.[Cl-]
1.85	4.55	–	CCCCCCCCCCC[N+](C)(C)Cc1ccccc1.[Cl-]
3.22	3.57	–	CCCCCCCCCCCCCCC[N+](C)(C)Cc1ccccc1.[Cl-]
4	3.55	–	CCCCCCCCCCCCCCCCC[N+](C)(C)Cc1ccccc1.[Cl-]
4.74	–	–	CCCCCCCCCCCCCCCCCCC[N+](C)(C)Cc1ccccc1.[Cl-]
2.57	3.85	–	CCCCCCCCCCCCC[N+](C)(C)Cc1ccccc1.[Cl-] [BENZALKONIUM CHLORIDE]
3.62	3.49	–	CCCCCCCCCCCCCCCC[N+](C)(C)Cc1ccccc1.[Cl-] [CETALKONIUM CHLORIDE]
2.92	3.51	–	CCCCCCCCCCCCCC[N+](C)(C)Cc1ccccc1.[Cl-] [MIRISTALKONIUM CHLORIDE]
